Experimental data published in patent EP0074411B1, “ASCORBIC ACID DERIVATIVES” (SANTEN PHARMACEUTICAL CO., LTD., priority 1981, dated 1982).

Test system: ddY-SPF strain male mouse
Experiment: Acute toxicity test
Assay type: in vivo
Details: ddY-SPF strain male mouse (weight: 25 to 30 g); administered orally as 0.5% tragacanth suspension
Method: Acute toxicity test • Acute toxicity of 3,6-0,0' - dipivaloyl - L - ascorbic acid of this invention is shown below. • Animal: ddY-SPF strain male mouse (weight: 25 to 30 g) • Method of administration: The compound is administered orally as 0.5% tragacanth suspension. • Acute toxicity: LDso 5000 mg/kg.

With `CC(C)(C)C(=O)OC[C@H](O)[C@H]1OC(=O)C(O)=C1OC(=O)C(C)(C)C` [3,6-0,0'-Dipivaloyl-L-ascorbic acid] the “Acute toxicity: LDso” value was 5000 mg/kg.
